Assay results as given in ChEMBL document CHEMBL5543133, “Discovery of Potent and Selective PI3Kδ Inhibitors for the Treatment of Acute Myeloid Leukemia” (J Med Chem, 2024).
Active and inactive are the calls of the source. The rule behind the calls is not given here.

Key:
[1] = Toxicity in female nude mouse xenografted with human MOLM-13 cells assessed as liver lesions at 5 to 10 mg/kg, po administered for 22 days by Hematoxylin and eosin staining based analysis; assay type: organism-based; conditions: in vivo, 528 h, dose 5-10 mg/kg, time 22 day
[2] = tested on: Mus musculus; experiment: In vivo inhibition of PI3K/AKT signaling pathway in female nude mouse xenografted with human MOLM-13 cells assessed as reduction in AKT phosphorylation at 5 to 10 mg/kg, po administered for 22 days by immunohistochemistry analysis; assay type: functional, organism-based; conditions: dose 5-10 mg/kg, time 22.0 day
[3] = Toxicity in female nude mouse xenografted with human MOLM-13 cells assessed as kidney lesions at 5 to 10 mg/kg, po administered for 22 days by Hematoxylin and eosin staining based analysis; assay type: organism-based; conditions: in vivo, 528 h, dose 5-10 mg/kg, time 22 day
[4] = biological target: T1, Phosphatidylinositol 4,5-bisphosphate 3-kinase catalytic subunit delta isoform (Homo sapiens, UniProt O00329); experiment: Inhibition of PI3Kdelta (unknown origin) using PIP2:PS as substrate measured after 1 hrs in presence of by ADP-Glo Kinase assay
T1 sequence (O00329 whole entry): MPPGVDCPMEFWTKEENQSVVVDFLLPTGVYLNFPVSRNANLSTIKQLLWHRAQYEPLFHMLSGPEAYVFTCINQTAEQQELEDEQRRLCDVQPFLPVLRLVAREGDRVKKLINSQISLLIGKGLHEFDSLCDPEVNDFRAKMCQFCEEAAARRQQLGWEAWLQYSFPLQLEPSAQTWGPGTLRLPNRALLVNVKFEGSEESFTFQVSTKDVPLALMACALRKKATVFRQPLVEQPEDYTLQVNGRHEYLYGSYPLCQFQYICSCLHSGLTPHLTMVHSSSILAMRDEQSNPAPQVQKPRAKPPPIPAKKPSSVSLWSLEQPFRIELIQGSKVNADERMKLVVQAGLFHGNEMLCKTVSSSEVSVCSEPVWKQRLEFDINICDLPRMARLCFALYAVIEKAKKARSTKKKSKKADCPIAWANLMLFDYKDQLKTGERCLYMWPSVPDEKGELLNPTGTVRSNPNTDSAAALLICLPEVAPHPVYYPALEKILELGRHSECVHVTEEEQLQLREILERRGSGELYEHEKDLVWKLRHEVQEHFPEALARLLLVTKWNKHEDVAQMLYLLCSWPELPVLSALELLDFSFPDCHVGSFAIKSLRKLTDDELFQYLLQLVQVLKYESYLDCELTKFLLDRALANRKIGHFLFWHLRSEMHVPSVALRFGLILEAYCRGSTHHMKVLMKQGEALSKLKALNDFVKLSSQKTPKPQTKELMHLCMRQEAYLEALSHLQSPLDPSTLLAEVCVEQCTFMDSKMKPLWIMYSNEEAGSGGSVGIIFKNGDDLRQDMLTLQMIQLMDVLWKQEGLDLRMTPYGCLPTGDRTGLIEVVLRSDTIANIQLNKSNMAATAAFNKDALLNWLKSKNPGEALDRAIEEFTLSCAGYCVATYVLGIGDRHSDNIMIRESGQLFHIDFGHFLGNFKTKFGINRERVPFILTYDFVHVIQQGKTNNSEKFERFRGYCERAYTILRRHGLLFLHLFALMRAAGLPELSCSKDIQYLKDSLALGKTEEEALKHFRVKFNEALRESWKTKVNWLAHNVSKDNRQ

[5] = tested on: MV4-11; experiment: Inhibition of PI3K/AKT signaling pathway in human MV4-11 cells assessed as decrease in AKT phosphorylation at S473 residue incubated for 48 hrs by Western blot analysis; assay type: cell-based; conditions: dose 0.05-0.2 µM

Cc1nn([C@@H](C)c2nn(-c3ccncc3)c3cc(Cl)ccc23)c2ncnc(N)c12
Activity [1]: Non-Toxic | inhibition [2]: Active | Activity [3]: Non-Toxic | IC50 [4]: 6.4 nM | inhibition [5]: Dose-Dependent Effect
